Laboratory results from PubChem BioAssay (NCI).
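Interpolation was linear, between the two tested concentrations surrounding the appropriate level; five concentrations were tested over 48 hours in 96-well plates. Abbreviation: GI50, concentration required for 50% inhibition of growth. The concentration for full growth arrest is given as TGI.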

How the values were obtained:
Assay in all cases: NCI-60 cell line screen, 48 h
786-0 renal = tested on: 786-0 renal
A549 NSCLC = tested on: A549 NSCLC
ACHN renal = tested on: ACHN renal
COLO 205 colon = tested on: COLO 205 colon
EKVX NSCLC = tested on: EKVX NSCLC
HCT-15 colon = tested on: HCT-15 colon
MOLT-4 leukemia = tested on: MOLT-4 leukemia
NCI-H460 lung = tested on: NCI-H460 lung
U251 CNS = tested on: U251 CNS
UACC-257 melanoma = tested on: UACC-257 melanoma

## CC1C=CC(=O)C(n2cc(F)c(=O)[nH]c2=O)O1 (stereo unspecified)
786-0 renal
  TGI: 31.3 µM
A549 NSCLC
  TGI: 70.8 µM
ACHN renal
  TGI: 36.8 µM
COLO 205 colon
  TGI: 35.9 µM
EKVX NSCLC
  TGI: 50.9 µM
HCT-15 colon
  TGI: 42.4 µM
MOLT-4 leukemia
  TGI: 48.7 µM
NCI-H460 lung
  TGI: 54.2 µM
U251 CNS
  TGI: 29.5 µM
UACC-257 melanoma
  TGI: 30 µM

## CCn1cnc2c(Nc3cccc(Cl)c3)nc(N[C@@H]3CCCC[C@@H]3N)nc21
786-0 renal
  GI50: 1.83 µM
  TGI: 5.05 µM
A549 NSCLC
  GI50: 2.09 µM
  TGI: 8.6 µM
ACHN renal
  GI50: 1.34 µM
  TGI: 3.6 µM
COLO 205 colon
  GI50: 1.19 µM
  TGI: 2.6 µM
EKVX NSCLC
  GI50: 1.6 µM
  TGI: 3.92 µM
HCT-15 colon
  GI50: 2.08 µM
  TGI: 8.75 µM
MOLT-4 leukemia
  GI50: 2.24 µM
  TGI: 7.27 µM
NCI-H460 lung
  GI50: 1.23 µM
  TGI: 3.7 µM
U251 CNS
  GI50: 1.37 µM
  TGI: 3.3 µM
UACC-257 melanoma
  GI50: 1.57 µM
  TGI: 3.11 µM

## CC12CCC[C@@](C)(C(=O)OC3OC(CO)C(O)C(O)C3O)[C@H]1CCC13CC4CC(OC4(CO)[C@H]1O)[C@@H]23 (stereo partly specified)
786-0 renal
  TGI: > 100 µM
A549 NSCLC
  TGI: > 100 µM
ACHN renal
  TGI: > 100 µM
EKVX NSCLC
  TGI: > 100 µM
HCT-15 colon
  TGI: > 100 µM
MOLT-4 leukemia
  TGI: > 100 µM
NCI-H460 lung
  TGI: > 100 µM
U251 CNS
  TGI: > 100 µM
UACC-257 melanoma
  TGI: > 100 µM

## CCCCCCCC/C=C\CCCCCCCC(=O)NCCN(CCN)C(=O)CCCCCCC/C=C\CCCCCCCC
786-0 renal
  TGI: > 100 µM
A549 NSCLC
  TGI: > 100 µM
ACHN renal
  TGI: > 100 µM
COLO 205 colon
  TGI: > 100 µM
HCT-15 colon
  TGI: > 100 µM
MOLT-4 leukemia
  TGI: > 100 µM
NCI-H460 lung
  TGI: > 100 µM
U251 CNS
  TGI: > 100 µM
UACC-257 melanoma
  TGI: > 100 µM

## COC1=CC(c2ccc[nH]2)=N/C1=C\c1[nH]c(C)c(C(=O)CCCCC(=O)Nc2ccccc2)c1C
786-0 renal
  GI50: 4.79 µM
  TGI: 12.6 µM
ACHN renal
  GI50: 10.3 µM
  TGI: 24 µM
COLO 205 colon
  GI50: 1.75 µM
  TGI: 3.8 µM
EKVX NSCLC
  GI50: 2.64 µM
  TGI: 19.8 µM
HCT-15 colon
  GI50: 0.679 µM
  TGI: 2.44 µM
MOLT-4 leukemia
  GI50: 0.522 µM
  TGI: 2.01 µM
NCI-H460 lung
  GI50: 1.25 µM
  TGI: 2.63 µM
U251 CNS
  GI50: 1.29 µM
  TGI: 2.56 µM
UACC-257 melanoma
  GI50: 12.2 µM
  TGI: 34 µM

## CCCc1nc2c(C)cc(-c3nc4ccccc4n3C)cc2n1Cc1ccc(-c2ccccc2C(=O)O)cc1
786-0 renal
  GI50: 41.4 µM
  TGI: > 100 µM
A549 NSCLC
  GI50: 22.8 µM
  TGI: > 100 µM
ACHN renal
  GI50: 25.6 µM
  TGI: > 100 µM
COLO 205 colon
  GI50: 42.4 µM
  TGI: > 100 µM
HCT-15 colon
  GI50: 20.3 µM
  TGI: > 100 µM
MOLT-4 leukemia
  GI50: 32.4 µM
  TGI: > 100 µM
NCI-H460 lung
  GI50: 32.5 µM
  TGI: > 100 µM
U251 CNS
  GI50: 20.2 µM
  TGI: 51.8 µM
UACC-257 melanoma
  GI50: 68.4 µM
  TGI: > 100 µM

## CC(C)=CC(=O)Cc1nc2cc(C)c(C)cc2[nH]c1=O
786-0 renal
  TGI: > 100 µM
A549 NSCLC
  TGI: > 100 µM
ACHN renal
  TGI: > 100 µM
COLO 205 colon
  TGI: > 100 µM
EKVX NSCLC
  TGI: > 100 µM
HCT-15 colon
  TGI: > 100 µM
MOLT-4 leukemia
  TGI: > 100 µM
NCI-H460 lung
  TGI: > 100 µM
U251 CNS
  TGI: > 100 µM
UACC-257 melanoma
  TGI: > 100 µM

## CCOC(=O)c1sc(=S)c2c(C(=O)OCC)c(C(=O)OCC)sc2c1C(=O)OCC
786-0 renal
  GI50: 20.4 µM
  TGI: 44.5 µM
A549 NSCLC
  GI50: 16.4 µM
  TGI: 42.8 µM
ACHN renal
  GI50: 16.6 µM
  TGI: 39.4 µM
COLO 205 colon
  GI50: 27.6 µM
  TGI: > 100 µM
EKVX NSCLC
  GI50: 21.5 µM
  TGI: 43.4 µM
HCT-15 colon
  GI50: 14.4 µM
  TGI: 28.5 µM
MOLT-4 leukemia
  GI50: 15.9 µM
  TGI: 42.3 µM
NCI-H460 lung
  GI50: 21.4 µM
  TGI: 51.2 µM
U251 CNS
  GI50: 12.7 µM
  TGI: 26.5 µM
UACC-257 melanoma
  GI50: 15.1 µM
  TGI: 39 µM

## COc1ccc(/C(C)=N/OC(=O)c2c(-c3ccccc3Cl)noc2C)cc1CN1CCOCC1
786-0 renal
  TGI: 59.2 µM
A549 NSCLC
  TGI: 50.9 µM
ACHN renal
  TGI: 32.8 µM
COLO 205 colon
  TGI: 31.3 µM
HCT-15 colon
  TGI: > 100 µM
MOLT-4 leukemia
  TGI: > 100 µM
NCI-H460 lung
  TGI: > 100 µM
U251 CNS
  TGI: 97.7 µM
UACC-257 melanoma
  TGI: 46.6 µM

## O=C(Nc1nc2ncn(CC(COc3ccccc3)OC(=O)c3ccccc3)c2c(=O)[nH]1)c1ccccc1 (stereo unspecified)
786-0 renal
  TGI: > 100 µM
A549 NSCLC
  TGI: > 100 µM
ACHN renal
  TGI: > 100 µM
EKVX NSCLC
  TGI: > 100 µM
HCT-15 colon
  TGI: > 100 µM
MOLT-4 leukemia
  TGI: > 100 µM
U251 CNS
  TGI: > 100 µM
UACC-257 melanoma
  TGI: > 100 µM

## CC1=C(C(=O)Nc2ccc(Cl)c(Cl)c2)C(c2ccco2)C(C(=O)Nc2ccc(Cl)c(Cl)c2)=C(C)N1
786-0 renal
  TGI: 25.8 µM
A549 NSCLC
  TGI: 28.1 µM
ACHN renal
  TGI: 18.2 µM
COLO 205 colon
  TGI: 25.7 µM
EKVX NSCLC
  TGI: 29.5 µM
HCT-15 colon
  TGI: 24.3 µM
MOLT-4 leukemia
  TGI: 48 µM
NCI-H460 lung
  TGI: 31.6 µM
U251 CNS
  TGI: 23.9 µM
UACC-257 melanoma
  TGI: 28.5 µM

## COc1ccc(-c2ccc(C3CC(c4ccc(Cl)cc4)=NN3)o2)c([N+](=O)[O-])c1 (stereo unspecified)
786-0 renal
  GI50: > 100 µM
  TGI: > 100 µM
A549 NSCLC
  GI50: > 100 µM
  TGI: > 100 µM
COLO 205 colon
  GI50: > 100 µM
  TGI: > 100 µM
EKVX NSCLC
  GI50: > 100 µM
  TGI: > 100 µM
HCT-15 colon
  GI50: > 100 µM
  TGI: > 100 µM
MOLT-4 leukemia
  GI50: > 100 µM
  TGI: > 100 µM
NCI-H460 lung
  GI50: > 100 µM
  TGI: > 100 µM
U251 CNS
  GI50: > 100 µM
  TGI: > 100 µM
UACC-257 melanoma
  GI50: > 100 µM
  TGI: > 100 µM

## Nc1nc2nc[nH]c2c(=O)[nH]1
786-0 renal
  TGI: > 100 µM
A549 NSCLC
  TGI: > 100 µM
ACHN renal
  TGI: > 100 µM
COLO 205 colon
  TGI: > 100 µM
EKVX NSCLC
  TGI: > 100 µM
HCT-15 colon
  TGI: > 100 µM
NCI-H460 lung
  TGI: > 100 µM
U251 CNS
  TGI: > 100 µM
UACC-257 melanoma
  TGI: > 100 µM

## Nc1ccc(/C=N/Nc2ccnc3c(N)cccc23)c2cccnc12
786-0 renal
  GI50: 1.59 µM
  TGI: 3.04 µM
A549 NSCLC
  GI50: 1.68 µM
  TGI: 3.24 µM
COLO 205 colon
  GI50: 1.78 µM
  TGI: 3.46 µM
EKVX NSCLC
  GI50: 1.63 µM
  TGI: 3.34 µM
HCT-15 colon
  GI50: 1.34 µM
  TGI: 2.9 µM
U251 CNS
  GI50: 1.61 µM
  TGI: 3.09 µM

## O=C(NO)C12C3C4C1C1C2C3C41C(=O)NO (stereo unspecified)
786-0 renal
  TGI: > 100 µM
A549 NSCLC
  TGI: > 100 µM
ACHN renal
  TGI: > 100 µM
COLO 205 colon
  TGI: > 100 µM
EKVX NSCLC
  TGI: > 100 µM
HCT-15 colon
  TGI: > 100 µM
MOLT-4 leukemia
  TGI: > 100 µM
NCI-H460 lung
  TGI: > 100 µM
U251 CNS
  TGI: > 100 µM

## NCCNC(=S)S
786-0 renal
  TGI: > 100 µM
A549 NSCLC
  TGI: > 100 µM
ACHN renal
  TGI: > 100 µM
COLO 205 colon
  TGI: > 100 µM
EKVX NSCLC
  TGI: > 100 µM
HCT-15 colon
  TGI: > 100 µM
MOLT-4 leukemia
  TGI: 77.9 µM
U251 CNS
  TGI: > 100 µM
UACC-257 melanoma
  TGI: > 100 µM

## Cc1[nH]c(=O)[nH]c(=O)c1CO
786-0 renal
  GI50: > 100 µM
  TGI: > 100 µM
A549 NSCLC
  GI50: > 100 µM
  TGI: > 100 µM
ACHN renal
  GI50: > 100 µM
  TGI: > 100 µM
COLO 205 colon
  GI50: > 100 µM
  TGI: > 100 µM
HCT-15 colon
  GI50: > 100 µM
  TGI: > 100 µM
MOLT-4 leukemia
  GI50: > 100 µM
  TGI: > 100 µM
NCI-H460 lung
  GI50: > 100 µM
  TGI: > 100 µM
U251 CNS
  GI50: > 100 µM
  TGI: > 100 µM
UACC-257 melanoma
  GI50: > 100 µM
  TGI: > 100 µM
